One experiment concerns the target T1, mGAT4 (Mus musculus, UniProt P31650).
T1 construct: expressed in transfected cells; host or cells: HEK293
T1 sequence (P31650 1-627): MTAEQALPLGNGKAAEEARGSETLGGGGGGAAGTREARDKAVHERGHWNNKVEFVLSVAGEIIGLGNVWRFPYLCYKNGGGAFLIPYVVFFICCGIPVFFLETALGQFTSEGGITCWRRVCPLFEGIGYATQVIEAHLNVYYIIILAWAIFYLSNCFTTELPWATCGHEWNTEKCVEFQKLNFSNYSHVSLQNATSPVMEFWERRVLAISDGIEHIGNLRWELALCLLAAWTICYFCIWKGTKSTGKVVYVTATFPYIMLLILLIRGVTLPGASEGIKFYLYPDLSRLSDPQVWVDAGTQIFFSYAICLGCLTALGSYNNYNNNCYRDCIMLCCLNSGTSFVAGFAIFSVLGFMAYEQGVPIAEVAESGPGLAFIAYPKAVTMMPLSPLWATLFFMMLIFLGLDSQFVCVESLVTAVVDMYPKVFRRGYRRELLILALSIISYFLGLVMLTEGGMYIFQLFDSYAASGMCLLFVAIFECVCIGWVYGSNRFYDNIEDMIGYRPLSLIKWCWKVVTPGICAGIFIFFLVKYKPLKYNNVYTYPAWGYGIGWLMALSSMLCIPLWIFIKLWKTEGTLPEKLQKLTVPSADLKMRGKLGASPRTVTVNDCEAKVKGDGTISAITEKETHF
The experiment can be described thus: [^3H]GABA uptake assay, HEK293 cells expressing mGAT4. The format is cell-based. To be noted: for IC50: [^3H]GABA uptake, pIC50±SEM; for remaining activity at 100 µM: HEK293, in presence of 100 μM compound. How it is done: (§1) For compounds with pIC50 ([^3H]GABA uptake assay) or pK i (MS Binding Assays) values close to or above 5.0, these experiments were repeated twice and SEM have been calculated.
(§2) [^3H]GABA uptake assays: The [^3H]GABA uptake assays were performed according to Kragler et al.33 Cells were grown in 150 cm^2 plates to a confluence of 70–90 % up to passage 25. After detachment the cells were centrifuged 5 min at 500×g, washed for three times in phosphate buffered saline and, finally, resuspended in Krebs buffer (2.5 mM CaCl2, 1.2 mM MgSO4, 1.2 mM KH2PO4, 4.7 mM KCl, 11 mM glucose, 25 mM Tris, 119 mM NaCl, pH 7.2). The uptake assays were performed with aliquots of the resulting cell suspension (about 100000–200000 cells per well) in a total volume of 250 μl in 96 well 2.2 mL deep well plates. The cells were equilibrated for 25 min in Krebs buffer in the presence of the test compound at 37 °C in a gently shaking water bath. […] After addition of 25 μl of a solution containing [^3H]GABA (2.22 TBq/mmol, ARC, St Louis, MO, USA) and unlabeled GABA in Krebs (final concentration 8 nM [^3H]GABA and 32 nM unlabeled GABA for mGAT1, mGAT3, mGAT4 and 20 nM [^3H]GABA and 20 nM unlabeled GABA for mGAT2) the cells were incubated for further 4 min (mGAT1, mGAT3, mGAT4) or 10 minutes (mGAT2), respectively. The incubation was stopped by filtration through Sartorius MGC micro glass fiber filters pre‐soaked for 1 h in 0.9 % NaCl by means of a Brandell MWXR‐96TI cell harvester (Brandell, Gaithersburg, MD, USA) under reduced pressure. The filters were rinsed two times with cold 0.9 % NaCl and subsequently transferred to 96 well sample plates (Perkin Elmer LAS, Boston, MA, USA). After addition of 200 μl Rotiszint Eco Plus (Roth, Karlsruhe, Germany) per well the radioactivity was determined in a microbeta liquid scintillation counter (Perkin Elmer LAS, Boston, MA, USA). Non‐specific uptake was determined in presence of 10 mM GABA for mGAT1, mGAT3 and mGAT4 or 100 mM GABA for mGAT2, respectively. The results are expressed as means±S.E.M. of at least three separate experiments, each carried out in triplicate.

For experiment [1], the target named is T2, mGAT1 (Mus musculus, UniProt P31648).
T2 construct: expressed in transfected cells; host or cells: HEK293
Nature of the experiment: MS Binding Assay with NO711 as native MS marker. To be noted: in presence of 100 μM compound; read-out: remaining specific NO711 binding (mGAT1). On the procedure:
as §1
MS Binding Assays: The MS Binding Assays were performed with mGAT1 membrane preparations obtained from a stably mGAT1 expressing HEK293 cell line and NO711 as unlabeled marker in competitive binding experiments as previously described in detail.34 In short, test compounds were investigated at 7 concentrations in presence of 10 nM NO 711 in competition experiments. Non specific binding was defined as binding remaining in the presence of 100 mM GABA. Incubation was terminated by transfer of 200 μL per well onto a 96‐well filter plate (Acroprep, glass fibre, 1.0 μm, 350 μL, Pall, Dreieich, Germany) with a 12 channel pipette. After rapid vacuum‐filtration the filters were washed with ice cold 0.9 % NaCl (5×150 μL) and dried at 50 °C for 60 min. Afterwards, the filters were eluted with 100 μL methanol containing [^2H10]NO711 (1.4 nM) as internal standard per well into a deep‐well plate by application of vacuum. This step was repeated twice resulting in a total elution volume of 300 μL. Finally, a volume of 130 μL ammonium formate buffer (10 mM, pH 7.0) was added per well and the generated samples analyzed by LC‐ESI‐MS/MS using a API 3200 as described in detail previously.40

In experiment [2] the target is T2, mGAT1. Nature of the experiment: [^3H]GABA uptake assay, HEK293 cells expressing mGAT1. The format is cell-based. To be noted: for remaining activity at 100 µM: HEK293, in presence of 100 μM compound. On the procedure:
as §1, §2

A further experiment addresses T3, mGAT2 (Mus musculus, UniProt P31651).
T3 construct: expressed in transfected cells; host or cells: HEK293
T3 sequence (P31651 1-614): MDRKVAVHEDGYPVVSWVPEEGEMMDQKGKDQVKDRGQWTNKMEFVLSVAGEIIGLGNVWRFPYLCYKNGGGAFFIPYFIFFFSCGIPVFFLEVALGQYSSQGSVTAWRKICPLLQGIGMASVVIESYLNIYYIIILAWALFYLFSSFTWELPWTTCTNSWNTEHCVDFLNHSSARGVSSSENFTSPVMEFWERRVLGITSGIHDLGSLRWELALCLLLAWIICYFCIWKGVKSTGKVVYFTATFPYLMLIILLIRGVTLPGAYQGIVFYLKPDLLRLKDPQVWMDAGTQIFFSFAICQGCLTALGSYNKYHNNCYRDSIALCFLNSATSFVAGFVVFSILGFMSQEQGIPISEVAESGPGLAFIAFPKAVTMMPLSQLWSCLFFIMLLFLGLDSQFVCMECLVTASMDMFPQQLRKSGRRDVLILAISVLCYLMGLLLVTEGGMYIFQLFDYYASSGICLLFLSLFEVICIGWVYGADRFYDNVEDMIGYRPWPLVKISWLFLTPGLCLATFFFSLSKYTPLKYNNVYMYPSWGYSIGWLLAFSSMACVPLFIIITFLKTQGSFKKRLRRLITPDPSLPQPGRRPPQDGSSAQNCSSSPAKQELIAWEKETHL
The experiment can be described thus: [^3H]GABA uptake assay, HEK293 cells expressing mGAT2. The format is cell-based. The conditions noted are these: for remaining activity at 100 µM: HEK293, in presence of 100 μM compound; for IC50: [^3H]GABA uptake, pIC50±SEM. On the procedure:
as §1, §2

A further experiment has as its target T4, mGAT3 (Mus musculus, UniProt P31649).
T4 construct: expressed in transfected cells; host or cells: HEK293
T4 sequence (P31649 1-602): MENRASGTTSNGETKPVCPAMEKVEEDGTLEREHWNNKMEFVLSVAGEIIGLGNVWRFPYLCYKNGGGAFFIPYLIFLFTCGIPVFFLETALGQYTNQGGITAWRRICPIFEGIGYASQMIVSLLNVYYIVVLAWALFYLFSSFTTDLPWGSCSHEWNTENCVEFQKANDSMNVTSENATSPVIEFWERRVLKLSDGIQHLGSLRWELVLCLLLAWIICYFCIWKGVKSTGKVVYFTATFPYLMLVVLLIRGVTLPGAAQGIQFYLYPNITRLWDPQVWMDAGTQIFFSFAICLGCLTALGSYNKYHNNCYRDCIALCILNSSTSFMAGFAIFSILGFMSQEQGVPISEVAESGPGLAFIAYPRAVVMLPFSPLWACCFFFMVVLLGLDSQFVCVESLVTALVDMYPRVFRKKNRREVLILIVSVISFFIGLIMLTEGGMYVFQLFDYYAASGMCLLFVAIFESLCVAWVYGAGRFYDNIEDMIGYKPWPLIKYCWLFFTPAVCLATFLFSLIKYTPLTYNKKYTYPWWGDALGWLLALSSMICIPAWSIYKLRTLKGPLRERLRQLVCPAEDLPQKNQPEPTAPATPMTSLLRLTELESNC
The experiment can be described thus: [^3H]GABA uptake assay, HEK293 cells expressing mGAT3. To be noted: for remaining activity at 100 µM: HEK293, in presence of 100 μM compound; for IC50: [^3H]GABA uptake, pIC50±SEM. The format is cell-based. On the procedure: as §1, §2

This is an account of results in publication PMC7317212 (Chemmedchem, 2020).

What is called IC50 is the concentration that gives 50% inhibition.

As for `COc1ccc(C(OCCN2CCCC(C(=O)O)C2)(c2ccc(CNC(C)(C)C(=O)O)cc2)c2ccc(OC)cc2)cc1` (racemic) [5 q, rac ‐1‐{2‐[(4‐{[(2‐Carboxypropan‐2‐yl)amino]methyl}phenyl)bis(4‐methoxyphenyl)methoxy]ethyl}piperidine‐3‐carboxylic acid], the IC50 against mGAT4 was 45.7 µM. The remaining activity at 100 µM at mGAT1 [1] is 77%; at mGAT1 [2], 80.7%; on mGAT2, 77%; on mGAT3, 61.1%.
In the case of `COc1ccc(C(OCCN2CCCC(C(=O)O)C2)(c2ccc(CN3CCCC3=O)cc2)c2ccc(OC)cc2)cc1` (racemic) [5 r, rac‐ 1‐[2‐(Bis{4‐methoxyphenyl}{4‐[(2‐oxopyrrolidin‐1‐yl)methyl]phenyl}‐methoxy)ethyl]piperidine‐3‐carboxylic acid], the concentration for half-maximal inhibition (IC50) on mGAT4 is 64.6 µM. In addition, the remaining activity at 100 µM was determined as 97% on mGAT1 [1], 76% at mGAT1 [2], 79.7% on mGAT2 and 64.2% on mGAT3.
In the case of `COc1ccc(C(OCCN2CCCC(C(=O)O)C2)(c2ccc(CNCCCC(=O)O)cc2)c2ccc(OC)cc2)cc1` (racemic) [5 s, rac ‐1‐{2‐[(4‐{[(3‐Carboxypropyl)amino]methyl}phenyl)bis(4‐methoxy‐phenyl)methoxy]ethyl}piperidine‐3‐carboxylic acid], the half-maximal inhibitory concentration (IC50) against mGAT4 was 74.1 µM; against mGAT3 it was 46.8 µM. Also, the values for the remaining activity at 100 µM at mGAT1 [1], at mGAT1 [2] and at mGAT2 were 86.5%, 48.5% and 51.5%, respectively.
With `CCOC(=O)C1CCCN(CCOC(c2ccc(C=O)cc2)(c2ccc(OC)cc2)c2ccc(OC)cc2)C1` (racemic) [12 a, rac‐ Ethyl 1‐{2‐[(4‐formylphenyl)bis(4‐methoxyphenyl)methoxy]ethyl}‐piperidine‐3‐carboxylate], the remaining activity at 100 µM at mGAT4 turned out to be 55.9%; on mGAT1 [1], 85.4%; at mGAT1 [2] it was 55.5%. For the same compound, the results for the IC50 against mGAT2 and at mGAT3 were 26.9 µM and 12.6 µM, respectively.
On to `CCOC(=O)C1CCCN(CCOC(c2ccc(OC)cc2)(c2ccc(OC)cc2)c2ccc(C(C)=O)cc2)C1` (racemic) [12 b, rac‐ Ethyl 1‐{2‐[(4‐acetylphenyl)bis(4‐methoxyphenyl)methoxy]ethyl}‐piperidine‐3‐carboxylate], for which the remaining activity at 100 µM on mGAT4 is 84.2%; on mGAT1 [1], 84.6%; on mGAT1 [2] it was 72.9%; on mGAT2, 66.4%; on mGAT3, 55.2%.
For `CCOC(=O)C1CCCN(CCOC(c2ccc(OC)cc2)(c2ccc(OC)cc2)c2ccc(S(=O)(=O)N(C)C)cc2)C1` (racemic) [12 c, rac‐ Ethyl 1‐(2‐{[4‐(N,N‐dimethylsulfamoyl)phenyl]bis[4‐methoxyphenyl]‐methoxy}ethyl)piperidine‐3‐carboxylate] the same measures were 94.3%, 93.8%, 75.7%, 73.2% and 95.9%.
With `CCOC(=O)C1CCCN(CCOC(c2ccc(OC)cc2)(c2ccc(OC)cc2)c2ccc3nccn3c2)C1` (racemic) [12 d, rac‐ Ethyl 1‐(2‐{imidazo[1,2‐a]pyridin‐6‐ylbis(4‐methoxyphenyl)methoxy}‐ethyl)piperidine‐3‐carboxylate], the concentration for half-maximal inhibition (IC50) against mGAT4 was 57.5 µM; against mGAT1 [2] ([^3H]GABA uptake, pIC50±SEM), 40.7 µM; against mGAT2, 13.2 µM; on mGAT3 it was 19.5 µM. For the same compound, the remaining activity at 100 µM on mGAT1 [1] was 77.2%.
With `CCOC(=O)c1ccc(C(OCCN2CCCC(C(=O)OCC)C2)(c2ccc(OC)cc2)c2ccc(OC)cc2)cc1` (racemic) [12 e, rac‐ Ethyl 1‐(2‐{[4‐(ethoxycarbonyl)phenyl]bis[4‐methoxyphenyl]‐methoxy}ethyl)piperidine‐3‐carboxylate], the remaining activity at 100 µM was determined as 76.1% on mGAT4; 74.8% on mGAT1 [1]; 84.6% at mGAT1 [2]; 87.3% at mGAT2; 79% on mGAT3.
